Converted amounts (≈) assume the structure as drawn. Where two headings read alike, the source gives them in different places.
Columns and labels:
Assay in all cases: In vitro antibacterial activity, two-fold agar-plate dilution method
Format in all cases: cell-based
E. coli NIHJ JC-2 = details: Escherichia coli, read-out: MIC (minimal inhibitory concentration)
Procedure: (§1) In vitro antibacterial activity was determined by the two-fold agar-plate dilution method as described below.
(§2) One loopful of an overnight culture of each test strain in Trypticase-soy broth (10^8 viable cells per ml.) was streaked on heart infusion agar (HI-agar) containing graded concentrations of antibiotics, and the minimal inhibitory concentration (MIC) was expressed in terms of μg/ml. aft er incubation at 37° C. for 20 hours.

Sal. enteritidis = details: Salmonella enterica, HI-agar, 37° C., 20 hours, read-out: MIC (minimal inhibitory concentration)
Procedure: as §1, §2

Sh. flexneri 2a = details: Shigella flexneri, HI-agar, 37° C., 20 hours, read-out: MIC (minimal inhibitory concentration)
Procedure: as §1, §2

Staph. aureus 209P JC-1 = details: Staphylococcus aureus, read-out: MIC (minimal inhibitory concentration)
Procedure: as §1, §2

[1] = NIHJJC2, E. coli NIHJ JC-2, HI-agar, 37° C., 20 hours
[2] = Staph. aureus 209P JC-1, HI-agar, 37° C., 20 hours

SMILES | MIC (E. coli NIHJ JC-2; [1]) [µg/mL] | MIC (Sal. enteritidis) [µg/mL] | MIC (Sh. flexneri 2a) [µg/mL] | MIC (Staph. aureus 209P JC-1; [2]) [µg/mL] | MIC (Staph. aureus 209P JC-1; 209P, 20 h) [µg/mL] | MIC (E. coli NIHJ JC-2; NIHJJC2, 20 h) [µg/mL]
CO/N=C(\C(=O)NC1C(=O)N2C(C(=O)O)=C(CSc3nnnn3C)CSC12)c1csnn1 (stereo not drawn) [Test Compound (1), 7-[2-Methoxyimino-2-(1,2,3-thiadiazol-4-yl)acetamido]-3-(1-methyl-1H-tetrazol-5-yl)thiomethyl-3-cephem-4-carboxylic acid (syn isomer)] | 0.78 (≈ 1.57 µM) | 0.2 (≈ 0.402 µM) | 1.56 (≈ 3.14 µM) | 3.13 (≈ 6.29 µM) | – | –
CO/N=C(/C(=O)NC1C(=O)N2C(C(=O)O)=C(CSc3nnnn3C)CSC12)c1csnn1 (stereo not drawn) [Test Compound (2), 7-[2-Methoxyimino-2-(1,2,3-thiadiazol-4-yl)acetamido]-3-(1-methyl-1H-tetrazol-5-yl)thiomethyl-3-cephem-4-carboxylic acid (anti isomer)] | 25 (≈ 50.2 µM) | 6.25 (≈ 12.6 µM) | 12.5 (≈ 25.1 µM) | – | 12.5 (≈ 25.1 µM) | –
Cn1nnnc1SCC1=C(C(=O)O)N2C(=O)C(NC(=O)/C(=N\O)c3cnsn3)C2SC1 (stereo not drawn) [Test Compound (3), 7-[2-Hydroxyimino-2-(1,2,5-thiadiazol-3-yl)acetamido]-3-(1-methyl-1H-tetrazol-5-yl)thiomethyl-3-cephem-4-carboxylic acid (syn isomer)] | 3.13 (≈ 6.47 µM) | 1.56 (≈ 3.23 µM) | 0.39 (≈ 0.807 µM) | 0.78 (≈ 1.61 µM) | – | –
Cn1nnnc1SCC1=C(C(=O)O)N2C(=O)C(NC(=O)/C(=N\O)c3cnsc3)C2SC1 (stereo not drawn) [Test Compound (4), 7-[2-Hydroxyimino-2-(isothiazol-4-yl)acetamido]-3-(1-methyl-1H-tetrazol-5-yl)thiomethyl-3-cephem-4-carboxylic acid (syn isomer)] | – | 0.78 (≈ 1.62 µM) | 0.39 (≈ 0.808 µM) | 0.39 (≈ 0.808 µM) | – | 1.56 (≈ 3.23 µM)
